Activity calls are given as the source filed them. The rule behind the calls is not given here.
Columns and labels:
[1] = system: Plasmodium yoelii nigeriensis; assay: Antimalarial activity against Plasmodium yoelii nigeriensis infected in Swiss mouse assessed as suppression of parasitemia at 96 mg/kg, po measured after 4 days relative to control; assay type: functional; conditions: time 4 day
[2] = system: Plasmodium yoelii nigeriensis; assay: Antimalarial activity against Plasmodium yoelii nigeriensis infected in Swiss mouse assessed as suppression of parasitemia at 96 mg/kg, im measured after 4 days relative to control; assay type: functional; conditions: time 4 day
[3] = system: Plasmodium yoelii nigeriensis; assay: Antimalarial activity against Plasmodium yoelii nigeriensis infected in Swiss mouse assessed as survival at 48 mg/kg, im measured after 4 days relative to control; assay type: functional, organism-based; conditions: time 4.0 day
[4] = system: Plasmodium yoelii nigeriensis; assay: Antimalarial activity against Plasmodium yoelii nigeriensis infected in Swiss mouse assessed as suppression of parasitemia at 24 mg/kg, im measured after 4 days relative to control; assay type: functional; conditions: time 4 day
[5] = system: Plasmodium yoelii nigeriensis; assay: Antimalarial activity against Plasmodium yoelii nigeriensis infected in Swiss mouse assessed as suppression of parasitemia at 48 mg/kg, po measured after 4 days relative to control; assay type: functional; conditions: time 4 day
[6] = system: Plasmodium yoelii nigeriensis; assay: Antimalarial activity against Plasmodium yoelii nigeriensis infected in Swiss mouse assessed as suppression of parasitemia at 48 mg/kg, im measured after 4 days relative to control; assay type: functional; conditions: time 4 day
[7] = system: Plasmodium yoelii nigeriensis; assay: Antimalarial activity against Plasmodium yoelii nigeriensis infected in Swiss mouse assessed as survival at 96 mg/kg, po measured after 4 days relative to control; assay type: functional, organism-based; conditions: time 4.0 day
[8] = system: Plasmodium yoelii nigeriensis; assay: Antimalarial activity against Plasmodium yoelii nigeriensis infected in Swiss mouse assessed as survival at 48 mg/kg, po measured after 4 days relative to control; assay type: functional, organism-based; conditions: time 4.0 day
[9] = system: Plasmodium yoelii nigeriensis; assay: Antimalarial activity against Plasmodium yoelii nigeriensis infected in Swiss mouse assessed as suppression of parasitemia at 24 mg/kg, po measured after 4 days relative to control; assay type: functional; conditions: time 4 day

Row | SMILES | Activity [1] [%] | Activity [2] [%] | other results
1 | C=C(c1ccc(O[Si](C)(C)C(C)(C)C)c2ccccc12)C1COC2(CCCCC2)OO1 (stereo not given) | 45.56 | – | –
2 | C=C(c1ccc(OCCO)c2ccccc12)C1COC2(CCCCC2)OO1 (stereo not given) | 75.34 | 100 | –
3 | C/C(=C/CO)C12OOC3(OC1CC(=O)c1ccccc12)C1CC2CC(C1)CC3C2 (stereo not given) | 45.68 | 35.89 | –
4 | C=C(c1ccc(OCCO)c2ccccc12)C1COC2(OO1)C1CC3CC(C1)CC2C3 (stereo not given) | 24.1 | 20.54 | –
5 | C=C(c1ccc(O[Si](C)(C)C(C)(C)C)c2ccccc12)C1COC2(OO1)C1CC3CC(C1)CC2C3 (stereo not given) | 27.71 | – | –
6 | C=C(c1ccc(OCCO)c2ccccc12)C1COC2(CCCC2)OO1 (stereo not given) | 57.23 | 100 | –
7 | C[C@@H]1CC[C@H]2[C@@H](C)C(=O)O[C@@H]3O[C@@]4(C)CC[C@@H]1[C@]32OO4 [ARTEMISININ] | – | – | Activity [3]: Active; Activity [4]: 100%; Activity [5]: 100%; Activity [6]: 100%
8 | C=C(c1ccc(OCCO)c2ccccc12)C1COC(C)(C)OO1 (stereo not given) | 22.89 | 40 | –
9 | C=C(c1ccc(OC(C)(C)CO)c2ccccc12)C1COC(C)(C)OO1 (stereo not given) | 24.76 | 48.27 | –
10 | C=C(c1ccc(O[Si](C)(C)C(C)(C)C)c2ccccc12)C1COC2(CCCC2)OO1 (stereo not given) | 27.71 | – | –
11 | C/C(=C/CO)C12OOC3(CCCCC3)OC1CC(=O)c1ccccc12 (stereo not given) | 52.78 | 51.63 | –
12 | C=C(c1ccc(O[Si](C)(C)C(C)(C)C)c2ccccc12)C1COC(C)(C)OO1 (stereo not given) | 14.7 | – | –
13 | C=C(c1ccc(OC(C)(C)CO)c2ccccc12)C1COC2(CCCCC2)OO1 (stereo not given) | 100 | 100 | Activity [7]: Active
14 | C/C(=C/CO)C12OOC3(CCCC3)OC1CC(=O)c1ccccc12 (stereo not given) | 39.17 | 37.43 | –
15 | C=C(c1ccc(OC(C)(C)CO)c2ccccc12)C1COC2(CCCC2)OO1 (stereo not given) | 100 | 100 | Activity [7]: Active
16 | C=C(c1ccc(OC(C)(C)CO)c2ccccc12)C1COC2(OO1)C1CC3CC(C1)CC2C3 (stereo not given) | 100 | 100 | Activity [4]: 27.68%; Activity [8]: Active; Activity [5]: 100%; Activity [9]: 100%; Activity [6]: 70.24%; Activity [7]: Active
17 | C/C(=C/CO)C12OOC(C)(C)OC1CC(=O)c1ccccc12 (stereo not given) | 53.17 | 37.81 | –
